From patent publication US11643439B2, “Multi-target compound with anticoagulation and antiplatelet activity, preparation method therefor, and use thereof” (SHAANXI MICOT TECHNOLOGY LIMITED COMPANY, priority 2015, dated 2023) come the findings set out here.

For the experiment, the system named is ADP-induced human platelet aggregation. Kind of experiment: ADP-induced human platelet aggregation in vitro. Type of experiment: cell-based. The settings on record: human PRP, 3 × 10−6 mol/L.

Bridge positions count the residues as written; N and C are the ends. Square brackets hold non-standard residues; d marks the D form. Peptide text beside a SMILES is read from it. hArg = N=C(N)NCCCC[C@H](N)C(=O)O; Mpa = O=C(O)CCS

Protocol: The drawn blood was centrifuged at 810 rpm for 8 minutes to obtain platelet rich plasma (PRP), which was taken out, then the blood sample was further centrifuged at 3510 rpm for 8 minutes to obtain platelet poor plasma (PPP).
Determination of platelet aggregation: A platelet aggregation instrument was started up and preheated for 30 minutes, and then calibrated with PPP. Into the test cups 270 μl of PRP was added, and then 10 μl of polypeptide 1, polypeptide 2, polypeptide 3 or polypeptide 4 (1.0×10^−7 mol/L) and/or 20 μl of physiological saline were added respectively, till a total volume of 300 μl. After incubation for 5 min, 5 μl of inducer ADP and 5 μl of epinephrine were added to start the test. After 5 minutes, the test was completed, and the maximum aggregation rate within the 5 minutes was recorded, and the data and maps were printed.

As to `N=C(N)NCCCC[C@@H]1NC(=O)CCSSC[C@@H](C(N)=O)NC(=O)[C@@H]2CCCN2C(=O)[C@H](Cc2c[nH]c3ccccc23)NC(=O)[C@H](CC(=O)O)NC(=O)CNC1=O` [Integrilin] ([Mpa][hArg]GDWPC-NH2; disulfide 1-7), the “inhibitory rate of platelet aggregation” value is given as 100%.
